Results: patent US9487551B2, “Small molecule compounds that control mammal-pathogenic nematodes” (California Institute of Technology, priority 2011, dated 2016)
“Also recorded” adds a separate entry of the source.

Experiments:
ASI sensory neurons = settings: in vivo; cited from earlier work
C. elegans [1] = test: Ascaroside function (Table 12); assay type: in vivo, Caenorhabditis elegans; set-up: key to Attract Females/Herm. / Promote Dauer Formation / Attract Males: A very strong result of affecting nematode behavior is designated in the table as “strong.”; settings: listed = has this function
Protocol: (§1) Various ascarosides and ascaroside blends were administered to various nematodes described below (Table 12). […] A very strong result of affecting nematode behavior is designated in the table as “strong.”

males = test: Bioassay of HPLC-purified peak; assay type: in vivo; settings: retention time 9.7 minutes
Protocol: A Thermo Finnigan LCQ Deca XP Max was used with electrospray ionization in positive ion mode in the 50-1000 AMU range. The Thermo Separation spectra HPLC system consisted of a P4000 quaternary pump, an AS 3000 auto sampler, and a UV 6000 diode array detector. The solvents were water with (a) 0.1% formic acid and (b) 90% acetonitrile-10% water with 10 mM ammonium formate. The column temperature was maintained at 60° C. and a solvent flow of 1.0 ml/min. The reversed phase column (PLRP-S Polymeric reversed phase column, 250×4.6 mmid, Varian Inc.) was eluted with a solvent composition starting with 90:10 (a,b) for 2 minutes, followed by a gradient to 5:95 in 20 minutes and an additional 5 minutes at 5:95. Ultraviolet absorption was monitored at 190 and 400 nm. Solvent flow between the ultraviolet detector and mass spectroscopy electrospray interface split 9:1 with a low-volume micro needle P450 splitter valve (Upchurch Scientific, Oak Harbor, Wash.), making it possible to obtain spectra of eluted compounds and simultaneously collect 90% of the injected material for bioassay. […] This was confirmed to be ascr#1 using NMR analysis.

Panagrellus redivivus = test: Ascaroside function (Table 12); assay type: in vivo; settings: listed = has this function
Protocol: as §1

S. glaseri = test: Ascaroside function (Table 12); assay type: in vivo; settings: listed = has this function
Protocol: as §1

[2] = tested on: Several of the tested nematode species; test: Retention assay; assay type: in vivo; settings: 1 nM, 1 μM and 1 mM tested
Protocol: OP50 E. coli was grown on a standard 5 cm agar plate (made with standard Nematode Growth Medium). The bacterial lawn was 16 mm in diameter and was grown overnight at 20° C. before being used in trials. Two 4 mm spots (0.6 μL) were placed on opposite sides of the bacterial lawn (using a transparent template to guide spot placement), and several minutes elapsed for the liquid to settle in before placing nematodes down on the assay. Recording began immediately upon worm placement. 0.6 μL of the control was placed on one side of the lawn, and 0.6 μL of the experimental cue was placed on the other side of the lawn, changing the location of the cue throughout trials between left/right and top/bottom to avoid bias.
Nematodes were isolated by gender at the L4 stage the day before being used in trials as developed adults. Worms were evenly divided and placed at two points equidistant from the foci of the scoring region. Trials were recorded for 20 minutes, and frames were collected for analysis at 1 frame per second. Results were averaged from at least three different trials. For every nematode species in this study, a different total number of worms (using water in both scoring regions) was tested to determine the minimum number of worms necessary for consistent unbiased results over a 20 minute trial. The total number of worms used in the multiple species assays depended on that species' optimal parameters. 10 worms were used for P. redivivus males and females, 20 worms were used for C. elegans males and O. dolichuridae males, and 14 worms were used for S. glaseri males. The Automated Software was used to compare worm occupancy in each scoring region over time, and the Chemotaxis Index (Bargmann et al., Cell 74:515-27 (1993), which is hereby incorporated by reference in its entirety) was adapted to score preference or avoidance to each ascaroside.
A video camera attached to the microscope produced a digital video stream, which was then analyzed. The ratio of the time the average worm spent in each region of interest was calculated for every trial. For ease of implementation, all worms in a single experiment were assumed to be roughly the same size. Thus worm pixels were counted instead of whole worms, allowing fractions of a worm in the region of interest to be taken into account. It also eliminated the need for a shape-based worm identification algorithm, and allowed each frame to be analyzed independently. A band-pass filter was applied to each frame to eliminate the effect of uneven lighting and also accentuate the worms against the background. The worm was then identified after thresholding the filtered image. Throughout each experiment, the locations and sizes of the regions of interest were known. Through the filtering described above, it is known which pixels are occupied by worms and which ones are not. Thus, the ratio of worm-pixels to all pixels inside the region of interest can be calculated to produce the worm-occupancy ratio. This calculation was done for every frame, giving a plot output of worm-occupancy ratio vs. time for each region.

C. elegans [3] = test: Aggregation assay; assay type: in vivo
Protocol: Aggregation behavior of worms was measured using assays reported in de Bono & Bargmann, Cell 94:679-89 (1998), which is hereby incorporated by reference in its entirety. Aggregation assays were conducted on standard NGM plates. Plates containing indole ascarosides were made by adding the indole ascaroside stock solution to the NGM media before they were poured onto the plates. These plates were dried at room temperature for 2 to 3 days. Control plates were treated similarly, except that ethanol solutions instead of icas solutions were added to the plates, corresponding to the amount of ethanol introduced via the icas solutions. Final ethanol concentrations of the plates were below 0.1% for all conditions. After drying, both control plates and plates containing indole ascarosides were seeded with 150 μl of an overnight culture of E. coli OP50 using a micropipette, and were allowed to dry for 2 days at room temperature. For “low worm density” experiments, 20 worms were placed onto the lawn and left at 20° C. for 3 hours. For “high worm density” experiments, approximately 120 worms were placed onto the bacterial lawn and left at 20° C. for 3 hours. Aggregation behavior was quantified as the number of animals that were in touch with two or more animals at greater than 50% of their body length.

C. elegans [4] = test: Spot attraction assay; assay type: in vivo
Protocol: The spot attraction assays were conducted according to a previously reported method (Pungaliya et al., PNAS 106:7708-13 (2009); Srinivasan et al., Nature 454:1115-18 (2008), which are hereby incorporated by reference in their entirety). For both C. elegans hermaphrodites and males, 50-60 worms were harvested daily at the fourth larval stage (L4) and stored segregatedly by sex at 20° C. overnight, to be used as young adults the following day. For the competition experiments, two conditions were used: 120 nM ascr#3 and 10 nM icas#3 (Condition 1), or 12 μM ascr#3 and 1 μM icas#3 (Condition 2) in water containing 10% ethanol. Aliquots were stored at −20° C. in 20 μL tubes. 10% ethanol in water was used as control.
Attraction assays with hbas#3 were conducted as previously reported (Srinivasan et al., Nature 454:1115-18 (2008); Pungaliya et al., Proc. Natl. Acad. Sci. U.S.A. 106:7708-13 (2009), which are hereby incorporated by reference in their entirety). For the attraction assays, 50-60 hermaphrodite worms were harvested daily at the early fourth larval stage (L4) and stored at 20° C. overnight to be used as young adults the following day. Hbas#3 was dissolved in water containing 10% ethanol. Aliquots were stored at −20° C. in 20 μL tubes. 10% ethanol in water was used as control.

C. elegans [5] = test: Measurement of locomotory parameters (automated worm-tracking); assay type: in vivo
Protocol: Reversal frequency and velocity were measured using an automated worm-tracking system (Pungaliya et al., PNAS 106:7708-13 (2009); Srinivasan et al., Nature 454:1115-18 (2008), which are hereby incorporated by reference in their entirety).

AIA interneurons = test: Calcium imaging (G-CaMP); assay type: in vivo, C. elegans; settings: 1 μM icas#3
Source text: Transgenic lines that express the genetically encoded Ca^2+ sensor in ASK (kyEx2866) and AIA (kyEx2916) (Macosko et al., Nature 458:1171-75 (2009), which is hereby incorporated by reference in its entirety) were used for calcium imaging. Young adults or adult worms were inserted into an “Olfactory chip” microfluidic device (Chronis et al., Nat. Methods 4:727-31 (2007), which is hereby incorporated by reference in its entirety). Dilutions of icas#3 were done with S-basal buffer (with no cholesterol). As stock solutions of icas#3 contained small amounts of ethanol, equivalent amounts of ethanol were added to the S-basal control flow.
Imaging was conducted using an inverted Zeiss microscope equipped with an Andor camera. Exposure time for image acquisition was 300 milliseconds. Before imaging the ASK neuron, the worm was exposed to blue light for 3 minutes as ASK responds to the blue light itself. […] Movies were analyzed using custom-made Matlab scripts. The first peak of fluorescence immediately after exposure to buffer or icas#3 was chosen for calculating the average change in fluorescence upon exposure to either buffer or icas#3. The value for this maximum was then subtracted from the mean fluorescence during the 5 seconds before the delivery of icas#3/buffer (corresponding to the region between 5 to 10 seconds in FIG. 2D).

C. elegans [6] = test: Quadrant chemotaxis assay; assay type: in vivo; settings: for chemotaxis of hermaphrodites from all tested strains: 1 pM icas#3, except npr-1(ad609) for the blend
Protocol: Chemotaxis to both non-indole and indole ascarosides was assessed on 10 cm four-quadrant petri plates (Wicks et al., Dev. Biol. 221:295-307 (2000), which is hereby incorporated by reference in its entirety). Each quadrant was separated from adjacent ones by plastic spacers (FIG. 1B). Pairs of opposite quadrants were filled with nematode growth medium (NGM) agar containing either indole ascarosides or non-indole ascarosides at different concentrations. Animals were washed gently in a S-basal buffer, placed in the center of a four-quadrant plate with ascarosides in alternating quadrants, and scored after 15 minutes and 30 minutes. A chemotaxis index was calculated as: (the number of animals on ascaroside quadrants minus the number of animals on buffer quadrants)/(total number of animals).
Chemotaxis to hbas#3 was assessed on 10 cm four-quadrant petri plates (Wicks et al., Dev. Biol. 221:295-307 (2000), which is hereby incorporated by reference in its entirety). Each quadrant was separated from adjacent ones by plastic spacers. Pairs of opposite quadrants were filled with nematode growth medium (NGM) agar containing different concentrations of hbas#3. Animals were washed gently in an S-basal buffer and placed in the center of a four-quadrant plate with ascarosides in alternating quadrants, and scored after 15 minutes and 30 minutes. A chemotaxis index was calculated as: (the number of animals on ascaroside quadrants minus the number of animals on buffer quadrants)/(total number of animals).

Compound: C[C@@H]1O[C@@H](OCCC(=O)O)[C@H](O)C[C@H]1O [ascr#5]
- calcium transients in the ASI sensory neurons (ASI sensory neurons): does not elicit calcium transients
- Promote Dauer Formation (C. elegans [1]): ascr#5 ([strong])
- Repel Females/Herm. (C. elegans [1]): ascr#5

Compound: C[C@H](CCCCC(=O)O)O[C@@H]1O[C@@H](C)[C@H](O)C[C@H]1O [ascr#1]
- activity to males in the bioassay (males): active to males
- Attract Males (Panagrellus redivivus): ascr#1
- Attract Males (S. glaseri): ascr#1
- preference for ascaroside-conditioned areas [2]: preferred areas conditioned
- Attract Males (C. elegans [1]): ascr#l
- Promote Dauer Formation (C. elegans [1]): ascr#1

Compound: C[C@H](CCCC/C=C/C(=O)O)O[C@@H]1O[C@@H](C)[C@H](OC(=O)c2c[nH]c3ccccc23)C[C@H]1O [icas#3]
- aggregation of CB4856 (C. elegans [3]; 1 nM of icas#3): not significantly different from the control
- aggregation of hermaphrodites lacking the ASK neurons (C. elegans [3]; any of the tested concentrations): did not aggregate
- aggregation of daf-22 hermaphrodites (C. elegans [3]; compared with N2): less aggregation than N2 worms at 1 pM icas#3 but not at 10 pM icas#3
- aggregation of solitary and social hermaphrodites (C. elegans [3]; constant background concentration): strongly increased the propensity
- aggregation of npr-1(ad609) hermaphrodites (C. elegans [3]; entire tested concentration range, no drop off): increased aggregation
- aggregation of him-5 males (C. elegans [3]; icas#3 plates): significantly increased
- concentration window for hermaphrodite attraction and aggregation (C. elegans [3]; in vivo): femtomolar to low picomolar
- concentration as low as which gave a very strong increase in aggregation (C. elegans [3]; low worm density, solitary and social hermaphrodites): 10 fM
- attraction in spot attraction assay (C. elegans [4]; 1 pmol (high concentrations), N2 hermaphrodites and him-5 males): attractive to both C. elegans sexes; also recorded: attracted both males and hermaphrodites
- attraction after ablation of ASI neurons (C. elegans [4]; ASI-ablated hermaphrodites): no significant effect
- attraction after ablation of ASK sensory neurons (C. elegans [4]; ASK-ablated hermaphrodites): near complete loss of attraction
- attraction of daf-22 hermaphrodites (C. elegans [4]; daf-22 mutant): attracted; also recorded: as strongly as N2 worms
- attraction of AIA-deficient worms (C. elegans [4]; hyperactive MEC-4 in AIA interneuron): did not show any attraction
- attraction of hermaphrodites (C. elegans [4]; low concentrations, N2 hermaphrodites): strongly attractive to hermaphrodites
- attraction of males (C. elegans [4]; low concentrations, males): no longer attracted
- attraction of npr-1(ad609) hermaphrodites (C. elegans [4]; npr-1(ad609) mutant): strongly attracted
- attraction of social wild-type hermaphrodites (C. elegans [4]; strains RC301 and CB4856): strongly attracted
- response after ablation of RMG interneuron (C. elegans [4]; wild-type and ncs-1::gfp worms, RMG ablated): did not affect icas#3 response
- worm velocity (C. elegans [5]; 1-10 pM icas#3): not significantly reduced
- mean stopped duration (C. elegans [5]; aggregation-inducing concentrations, N2 hermaphrodites): strongly increase
- reversal frequency and velocity of ASK-ablated hermaphrodites (C. elegans [5]; icas#3 plates): neither increased reversal frequency nor decreased velocity
- G-CaMP fluorescence in the AIA neurons (AIA interneurons): significantly increased G-CaMP fluorescence
- chemotaxis of hermaphrodites from all tested strains (C. elegans [6]; after 15 minutes, 10 nM of each ascr#2,3,5): attracted
- chemotaxis of hermaphrodites from all tested strains (C. elegans [6]; after 30 minutes, 10 nM ascr#2,3,5): attracted
- response of daf-22 hermaphrodites (C. elegans [6]; daf-22 mutant): as strongly as N2 worms
- concentration as low as which resulted in strong attraction of hermaphrodites (C. elegans [6]; in the presence and absence of food): 1 pM
- chemotaxis of npr-1(ad609) hermaphrodites (C. elegans [6]; npr-1(ad609) mutant): strongly attracted
- chemotaxis of social wild-type hermaphrodites (C. elegans [6]; strains RC301 and CB4856): strongly attracted
- Attract Females/Herm. (C. elegans [1]): icas#3 ([strong])
- Attract Males (C. elegans [1]): icas#3 ([strong])
